Test results as given in patent US20240156796A1, “PHARMACEUTICAL COMPOSITION FOR TREATMENT OR PREVENTION OF STRESS-RELATED DISORDERS” (TOKYO UNIVERSITY OF SCIENCE FOUNDATION, priority 2021, published 2024).

Key:
mouse [1] = assay: Mouse contextual fear conditioning test (effect on reconsolidation of fear memories), p.o. before second day test; format: in vivo; details: 20 mg/kg p.o. two hours before second day test; second and third days; test time 2 minutes; vs solvent group (FIG. 2)
Procedure: <Mouse Contextual Fear Conditioning Test (Effect on Reconsolidation of Fear Memories)> Using the same contextual fear conditioning test as Example 41, the effect on the reconsolidation of fear memories was investigated. The test was conducted in accordance with the method described in Non-Patent Document 4. Administration of the compound of Example 7 (20 mg/kg p.o.) or a solvent was conducted two hours prior to placing the mouse in the experimental chamber on the second day. In this test, the test time on the second and third days was set to 2 minutes.

μ-opioid receptor = molecular target: T1, μ-opioid receptor (Homo sapiens, UniProt P35372); assay: Opioid receptor function test (antagonist activity) against 30 nM DAMGO; format: cell-based; details: antagonist activity vs 30 nM DAMGO
T1 construct: host or cells: CHO cells
Procedure: (§1) Method: Using a Lance Ultra cAMP kit (manufactured by PerkinElmer, Inc.), the investigation was conducted in accordance with the prescribed method. In the evaluations of agonist activity, CHO cells expressing each of the human opioid receptors (δ, μ and κ: accession numbers and catalog numbers listed below) and each test compound were reacted for 30 minutes in an assay buffer (1×HBSS, 1 M HEPES, pH 7.4, 250 mM IBMX (isobutylmethylxanthine), 7.5% BSA) in the presence of 10 μM forskolin. Subsequently, the cAMP detection reagent included in the kit was added, and after 1 hour, a time-resolved fluorescence measurement was performed using an EnVision plate reader (manufactured by PerkinElmer, Inc.). […] The Emax value was calculated as the ratio of the maximum response of the test compound relative to a value of 100% for the maximum response of each control drug.
(§2) Evaluations of antagonist activity relative to the μ- and κ-opioid receptors were conducted using the same method as (1) above. A fixed concentration of each control drug (μ: 30 nM DAMGO, κ: 100 nM U-69593), the test compound and CHO cells expressing each of the human opioid receptors were reacted for 30 minutes in an assay buffer in the presence of 10 μM forskolin. The test compounds were evaluated in a concentration range from 10^−12 to 10^−5 M, and subsequent operations were conducted in the same manner as the agonist activity evaluations. A dose-response curve was determined for each test compound using a value of 100% for the response of each control drug in the absence of the test compound, and the concentration that inhibited 50% of the control drug response (namely, the IC50 value) was calculated.

mouse [2] = assay: Mouse contextual fear conditioning test (effect on extinction learning of fear memories); format: in vivo; details: 5, 10, 20 mg/kg p.o. two hours before second day test; second and third days; test time 6 minutes; vs solvent group (FIG. 1)
Procedure: The effect of the compound of Example 7 on extinction learning of fear memories was investigated in a mouse contextual fear conditioning test. The test was conducted in accordance with the method described in Non-Patent Document 4. Administration of the compound of Example 7 (5, 10, 20 mg/kg p.o.) or a solvent was conducted two hours prior to placing the mouse in the experimental chamber on the second day.

mouse [3] = assay: Mouse contextual fear conditioning test (effect on reconsolidation of fear memories), s.c. immediately after second day test; format: in vivo; details: 1 mg/kg, 3 mg/kg s.c. immediately after second day test; third day; vs solvent group (FIG. 3)
κ-opioid receptor [4] = molecular target: T2, κ-opioid receptor (Homo sapiens, UniProt P41145); assay: Opioid receptor function test (antagonist activity) against 100 nM U-69593; format: cell-based; details: antagonist activity vs 100 nM U-69593
T2 construct: host or cells: CHO cells
Procedure: as §1, §2

κ-opioid receptor [5] = molecular target: T2, κ-opioid receptor; assay: Opioid receptor function test (agonist activity), Lance Ultra cAMP kit, CHO cells expressing human κ-opioid receptor; format: cell-based; details: maximum response not reached, response rate at maximum concentration (10 μM), relative to U-69593, read-out: κ-receptor Emax (*response rate at the maximum concentration, reference value)
Procedure: The functional activity of the compounds provided by the present invention relative to μ-, δ- and κ-opioid receptors was investigated.
as §1
SNC80: (+)-4-[(aR)-α-((2S,5R)-4-allyl-2,5-dimethyl-1-piperazinyl)-3-methoxybenzyl]-N,N-diethylbenzamide DAMGO: [D-Ala^2,N-MePhe^4,Gly-ol]enkephalin U-69593: (+)-(5α,7α,8β)-N-methyl-N-[7-(1-pyrrolidinyl)-1-oxaspiro[4.5]dec-8-yl]benzeneacetamide

[6] = animal model, Non-Patent Documents 4 and 5; cited from earlier work

T2 sequence (P41145 whole entry): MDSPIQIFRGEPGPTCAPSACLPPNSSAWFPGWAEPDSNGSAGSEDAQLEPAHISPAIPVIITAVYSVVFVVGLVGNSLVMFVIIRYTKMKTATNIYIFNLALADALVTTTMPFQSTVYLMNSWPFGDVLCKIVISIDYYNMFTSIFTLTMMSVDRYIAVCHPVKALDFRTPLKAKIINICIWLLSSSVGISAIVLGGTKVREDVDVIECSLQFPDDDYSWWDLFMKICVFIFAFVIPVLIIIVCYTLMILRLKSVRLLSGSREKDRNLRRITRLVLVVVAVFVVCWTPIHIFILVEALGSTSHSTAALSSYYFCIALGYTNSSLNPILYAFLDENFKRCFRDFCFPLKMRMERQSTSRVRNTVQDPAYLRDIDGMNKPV
T1 sequence (P35372 whole entry): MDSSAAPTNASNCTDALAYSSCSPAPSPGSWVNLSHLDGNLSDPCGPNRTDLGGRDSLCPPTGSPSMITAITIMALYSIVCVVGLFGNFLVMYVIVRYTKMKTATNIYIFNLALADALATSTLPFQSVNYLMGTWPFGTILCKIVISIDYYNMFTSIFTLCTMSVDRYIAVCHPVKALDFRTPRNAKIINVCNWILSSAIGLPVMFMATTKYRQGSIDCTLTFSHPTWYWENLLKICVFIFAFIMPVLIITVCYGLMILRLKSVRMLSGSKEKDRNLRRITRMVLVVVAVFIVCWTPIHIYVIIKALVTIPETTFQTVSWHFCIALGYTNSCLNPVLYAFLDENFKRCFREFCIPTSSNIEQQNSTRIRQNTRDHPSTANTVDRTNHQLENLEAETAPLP

Row | SMILES | IC50 (μ-opioid receptor) | IC50 (κ-opioid receptor [4]) | further results
1 | O=C(c1cccc(=O)[nH]1)N1C[C@H]2C[C@@]34CC[C@@H]1[C@@H]2[C@@]31CCN(CC2CC2)[C@@H]4Cc2ccc(O)cc21 [Example 7, 6-((1S,3aR,5aS,6R,11bR,11cS)-14-(cyclopropylmethyl)-10-hydroxy-2,3,3a,4,5,6,7,11c-octahydro-1H-6,11b-(epiminoethano)-1,5a-methanonaphtho[1,2-e]indole-3-carbonyl)pyridin-2(1H)-one] | 1.3 nM | 4.6 nM | fear response (freezing behavior) (mouse [1]): significant reduction in fear response; fear response (freezing behavior, % of test time) (mouse [2]): significant reduction in fear response; fear response (freezing behavior) (mouse [3]): significant reduction in fear response
2 | O=C(c1cc(=O)cc[nH]1)N1C[C@H]2C[C@@]34CC[C@@H]1[C@@H]2[C@@]31CCN(CC2CC2)[C@@H]4Cc2ccc(O)cc21 [Example 14, 2-((1S,3aR,5aS,6R,11bR,11cS)-14-(cyclopropylmethyl)-10-hydroxy-2,3,3a,4,5,6,7,11c-octahydro-1H-6,11b-(epiminoethano)-1,5a-methanonaphtho[1,2-e]indole-3-carbonyl)pyridin-4(1H)-one] |  |  | Emax at 10 µM (κ-opioid receptor [5]): 5.7%
3 | Cn1cc(C(=O)N2C[C@H]3C[C@@]45CC[C@@H]2[C@@H]3[C@@]42CCN(CC3CC3)[C@@H]5Cc3ccc(O)cc32)ccc1=O [Example 9, 5-((1S,3aR,5aS,6R,11bR,11cS)-14-(cyclopropylmethyl)-10-hydroxy-2,3,3a,4,5,6,7,11c-octahydro-1H-6,11b-(epiminoethano)-1,5a-methanonaphtho[1,2-e]indole-3-carbonyl)-1-methylpyridin-2(1H)-one] | 2.4 nM | 3.3 nM | 
4 | O=C(c1ccc[nH]c1=O)N1C[C@H]2C[C@@]34CC[C@@H]1[C@@H]2[C@@]31CCN(CC2CC2)[C@@H]4Cc2ccc(O)cc21 [Example 3, 3-((1S,3aR,5aS,6R,11bR,11cS)-14-(cyclopropylmethyl)-10-hydroxy-2,3,3a,4,5,6,7,11c-octahydro-1H-6,11b-(epiminoethano)-1,5a-methanonaphtho[1,2-e]indole-3-carbonyl)pyridin-2(1H)-one] | 4.6 nM | 11.1 nM | 
5 | C=CCN1C[C@H](C)N([C@H](c2ccc(C(=O)N(CC)CC)cc2)c2cccc(OC)c2)C[C@H]1C [SNC80, (+)-4-[(aR)-α-((2S,5R)-4-allyl-2,5-dimethyl-1-piperazinyl)-3-methoxybenzyl]-N,N-diethylbenzamide] |  |  | anxiolytic effect through the extinction of anxiety or fear memories [6]: exhibited an anxiolytic effect
6 | O=C(c1cccc[n+]1[O-])N1C[C@H]2C[C@@]34CC[C@@H]1[C@@H]2[C@@]31CCN(CC2CC2)[C@@H]4Cc2ccc(O)cc21 [Example 1, 2-((1S,3aR,5aS,6R,11bR,11cS)-14-(cyclopropylmethyl)-10-hydroxy-2,3,3a,4,5,6,7,11c-octahydro-1H-6,11b-(epiminoethano)-1,5a-methanonaphtho[1,2-e]indole-3-carbonyl)pyridine 1-oxide] | 4.1 nM | 3.3 nM | 
7 | CCn1cc(C(=O)N2C[C@H]3C[C@@]45CC[C@@H]2[C@@H]3[C@@]42CCN(CC3CC3)[C@@H]5Cc3ccc(O)cc32)ccc1=O [Example 28, 5-((1S,3aR,5aS,6R,11bR,11cS)-14-(cyclopropylmethyl)-10-hydroxy-2,3,3a,4,5,6,7,11c-octahydro-1H-6,11b-(epiminoethano)-1,5a-methanonaphtho[1,2-e]indole-3-carbonyl)-1-ethylpyridin-2(1H)-one] | 2.1 nM | 4 nM | 
8 | Cn1c(C(=O)N2C[C@H]3C[C@@]45CC[C@@H]2[C@@H]3[C@@]42CCN(CC3CC3)[C@@H]5Cc3ccc(O)cc32)cccc1=O [Example 10, 6-((1S,3aR,5aS,6R,11bR,11cS)-14-(cyclopropylmethyl)-10-hydroxy-2,3,3a,4,5,6,7,11c-octahydro-1H-6,11b-(epiminoethano)-1,5a-methanonaphtho[1,2-e]indole-3-carbonyl)-1-methylpyridin-2(1H)-one] | 5.7 nM | 3.4 nM | 
